In ChEMBL document CHEMBL1123905:

These compounds were tested against Histamine H2 receptor (Cavia porcellus) (UniProt P47747) (assay: Antagonism of histamine stimulated rate of beating of guinea pig right atrium mediated by Histamine H2 receptor). Conditions: Cardiac atrium.
Type: functional, tissue-based

Sequence of Histamine H2 receptor (Cavia porcellus) (P47747 whole entry): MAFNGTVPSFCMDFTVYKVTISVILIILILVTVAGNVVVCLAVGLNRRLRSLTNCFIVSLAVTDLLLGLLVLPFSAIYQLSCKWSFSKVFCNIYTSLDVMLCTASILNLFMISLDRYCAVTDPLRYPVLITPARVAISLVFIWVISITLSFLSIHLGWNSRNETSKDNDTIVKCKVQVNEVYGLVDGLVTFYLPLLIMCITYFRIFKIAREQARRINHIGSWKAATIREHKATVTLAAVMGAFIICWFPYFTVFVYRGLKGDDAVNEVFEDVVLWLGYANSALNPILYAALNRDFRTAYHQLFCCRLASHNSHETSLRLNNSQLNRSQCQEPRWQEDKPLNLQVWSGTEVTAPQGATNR

`CN/C(=N\CCSCc1[nH]cnc1C)S(=O)(=O)O` and `CN/C(=N\CCSCc1[nH]cnc1C)S(=O)O` are within 0.2 log units of each other in -Log KB: 5.87 for the first, 5.73 for the second.

Compared with `Cc1[nH]cnc1CSCCNc1ncccc1O`, `Cc1[nH]cnc1CSCCNc1ncccc1C(=O)O` is lower in -Log KB: 5.89 for the first, 5.09 for the second.

Going from `Cc1[nH]cnc1CSCC/N=C(\N)c1ccc(C(=O)O)cc1` to `Cc1[nH]cnc1CSCC/N=C(\N)c1ccc(O)cc1`, the -Log KB rises from 3.7 to 4.2.

`Cc1[nH]cnc1CSCCNc1ncccc1S(=O)(=O)O` and `Cc1[nH]cnc1CSCCNc1cc(C(=O)O)ccn1` are within 0.2 log units of each other in -Log KB: 3.77 for the first, 3.76 for the second.

First: Cc1[nH]cnc1CSCC/N=C(\N)CC(=O)O
Second: Cc1[nH]cnc1CSCC/N=C(\N)C(=O)O
The -Log KB of the first is lower: 3.3 for the first, 5.41 for the second.

Going from `CN/C(=N\CCSCc1nc[nH]c1C)NC#N` to `CN/C(=N\CCSCc1[nH]cnc1C)P(=O)(O)OC`, the -Log KB falls from 6.1 to 4.25.

`Cc1[nH]cnc1CSCCNc1ccc(C(=O)O)cn1` was tested, and the -Log KB was < 3.3.
